Assay results: ChEMBL document CHEMBL1155491, “Acylurea connected straight chain hydroxamates as novel histone deacetylase inhibitors: Synthesis, SAR, and in vivo antitumor activity” (Bioorg Med Chem Lett, 2010)
Values after ≈ are worked out from the molar mass of the structure shown. Active and inactive are the calls of the source. The calls are words filed in the database; no cut-off is given here.

Legend:
Histone deacetylase 1 [1] = target: T1, Histone deacetylase 1 (Homo sapiens, UniProt Q13547)
Histone deacetylase 1 [2] = target: T1, Histone deacetylase 1; remark: listed apart in the source
Histone deacetylase 8 = target: T2, Histone deacetylase 8 (Homo sapiens, UniProt Q9BY41); assay: Inhibition of HDAC8
T2 sequence (Q9BY41 whole entry): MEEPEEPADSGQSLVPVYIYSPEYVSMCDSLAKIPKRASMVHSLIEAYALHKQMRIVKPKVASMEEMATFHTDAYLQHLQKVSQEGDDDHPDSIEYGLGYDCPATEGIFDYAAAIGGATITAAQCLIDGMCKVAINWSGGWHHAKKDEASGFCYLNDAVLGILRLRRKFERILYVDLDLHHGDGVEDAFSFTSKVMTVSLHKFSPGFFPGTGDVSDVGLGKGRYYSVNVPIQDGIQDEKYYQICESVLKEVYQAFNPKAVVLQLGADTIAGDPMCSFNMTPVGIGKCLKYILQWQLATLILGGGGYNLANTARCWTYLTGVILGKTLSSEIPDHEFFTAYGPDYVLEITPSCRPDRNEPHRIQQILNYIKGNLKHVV

[3] = Solubility at pH 7; type: physicochemical; conditions: buffer
[4] = Thermodynamic solubility at pH 7.4; type: physicochemical; conditions: buffer, read-out: Therm_solubility
[5] = Half life in human liver microsome; type: ADME; conditions: liver microsomes
[6] = Half life in rat liver microsome; type: ADME; conditions: liver microsomes
[7] = Half life in mouse liver microsome; type: ADME; conditions: liver microsomes
[8] = Octanol-water distribution coefficient, log D of the compound; type: physicochemical
[9] = Apparent permeability from apical to basolateral side of Caco-2 cells; type: ADME, cell-based; conditions: human
[10] = Clearance in mouse at 10 mg/kg, iv; type: ADME, organism-based; parameters: dose 10 mg/kg, route intravenous; conditions: in vivo
[11] = Volume of distribution at steady state in mouse at 10 mg/kg, iv; type: ADME, organism-based; parameters: dose 10 mg/kg, route intravenous; conditions: in vivo, read-out: Vdss
[12] = Elimination half life in mouse at 10 mg/kg, iv; type: ADME, organism-based; parameters: dose 10 mg/kg, route intravenous; conditions: in vivo, read-out: beta t1/2 (converted)
[13] = Toxicity in human PC3 cells xenografted nude mouse; type: organism-based, PC-3; conditions: in vivo
HCT-116 [14] = assay: Antitumor activity against human HCT116 cells xenografted in BALB/c mouse at 200 mg/kg, po after 21 days; type: functional, organism-based; parameters: dose 200 mg/kg
[15] = Oral bioavailability in mouse at 50 mg/kg, po; conditions: in vivo
HCT-116 [16] = assay: Antiproliferative activity against human HCT116 cells; type: functional, cell-based
A2780 = assay: Antiproliferative activity against human A2780 cells; type: functional, cell-based
PC-3 = assay: Antiproliferative activity against human PC3 cells; type: functional, cell-based
Histone deacetylase 1 [17] = target: T1, Histone deacetylase 1; assay: Inhibition of HDAC1 in human COLO205 cells assessed as induction of histone H3 acetylation at 10 uM by Western-immuno blotting; type: cell-based; conditions: COLO 205

T1 sequence (Q13547 whole entry): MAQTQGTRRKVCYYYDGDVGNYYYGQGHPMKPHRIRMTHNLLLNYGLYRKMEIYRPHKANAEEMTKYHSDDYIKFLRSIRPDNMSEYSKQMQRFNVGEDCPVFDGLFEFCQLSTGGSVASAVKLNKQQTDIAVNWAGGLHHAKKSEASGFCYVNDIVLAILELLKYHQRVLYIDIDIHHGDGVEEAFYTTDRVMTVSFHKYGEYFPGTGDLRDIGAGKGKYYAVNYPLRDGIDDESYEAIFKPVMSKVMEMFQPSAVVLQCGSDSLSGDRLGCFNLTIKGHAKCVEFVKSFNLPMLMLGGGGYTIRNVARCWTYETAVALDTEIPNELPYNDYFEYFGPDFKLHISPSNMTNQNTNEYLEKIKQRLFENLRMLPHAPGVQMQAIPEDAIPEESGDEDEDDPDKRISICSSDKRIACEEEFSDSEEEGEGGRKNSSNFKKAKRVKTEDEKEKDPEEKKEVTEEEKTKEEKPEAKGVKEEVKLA

SMILES	IC50 (Histone deacetylase 1 [1])	IC50 (Histone deacetylase 1 [2])	other results
O=C(CCCCCNC(=O)NC(=O)c1ccc(NS(=O)(=O)c2ccccc2)cc1)NO	97 nM	> 100000 nM	–
O=C(CCCCCN(Cc1ccccn1)C(=O)NC(=O)c1ccccc1)NO	245 nM	14700 nM	–
O=C(CCCCCCN(Cc1ccccc1)C(=O)NC(=O)c1ccccc1)NO	1600 nM	–	–
O=C(CCCCCCCNC(=O)NC(=O)c1ccccc1)NO	–	8280 nM	IC50 (Histone deacetylase 8): 405 nM
O=C(CCCCCCC(=O)Nc1ccccc1)NO [VORINOSTAT]	–	–	solubility [3]: > 250 µM; solubility thermodynamic [4]: 166 µg/mL (≈ 628 µM); half-life [5]: > 60 min; half-life [6]: > 30 min; half-life [7]: > 30 min; logD [8]: 1.04; Papp A→B [9]: 1.7 ×10⁻⁶ cm/s; clearance [10]: 112 mL/min/kg; Vd [11]: 0.81 L/kg; half-life [12]: 22.8 min; MTD [13]: 160 mg/kg; Activity (HCT-116 [14]): Active; bioavailability [15]: 8.3%
O=C(CCCCCNC(=O)NC(=O)c1cccc(Br)c1)NO	60 nM	3150 nM	–
O=C(CCCNC(=O)NC(=O)c1ccccc1)NO	> 10000 nM	–	IC50 (Histone deacetylase 8): > 10000 nM
O=C(CCCCCN(Cc1ccccc1)C(=O)NC(=O)c1ccccc1)NO	355 nM	3190 nM	Activity (Histone deacetylase 1 [17]): Active
O=C(CCCCCCNC(=O)NC(=O)c1ccccc1)NO	145 nM	2680 nM	Activity (Histone deacetylase 1 [17]): Active
O=C(CCCCCNC(=O)NC(=O)c1ccc(N2CCOCC2)c([N+](=O)[O-])c1)NO	55 nM	12000 nM	–
O=C(CCCCCNC(=O)NC(=O)c1ccc(F)cc1)NO	115 nM	2550 nM	–
O=C(CCCCCNC(=O)NC(=O)c1c(Cl)cccc1Cl)NO	185 nM	2950 nM	–
CN(C)CCn1cnc2cc(C(=O)NC(=O)NCCCCCC(=O)NO)ccc21	49 nM	19500 nM	–
O=C(CCCCCCN(Cc1ccccn1)C(=O)NC(=O)c1ccccc1)NO	555 nM	9060 nM	–
O=C(CCCCCNC(=O)NC(=O)c1cccc([N+](=O)[O-])c1)NO	92 nM	2800 nM	–
O=C(CCCCCN(CCCc1ccccc1)C(=O)NC(=O)c1ccccc1)NO	392 nM	–	IC50 (Histone deacetylase 8): 328 nM

Continued, in another order:

IC50 (Histone deacetylase 1 [1])	IC50 (Histone deacetylase 1 [2])	SMILES	other results
25 nM	9700 nM	O=C(CCCCCNC(=O)NC(=O)c1ccc2c(c1)ncn2CCc1ccccc1)NO	–
11 nM	1250 nM	Nc1cc(C(=O)NC(=O)NCCCCCC(=O)NO)ccc1Cl	–
46 nM	3250 nM	O=C(CCCCCNC(=O)NC(=O)c1ccc(N2CCCCC2)c([N+](=O)[O-])c1)NO	–
20 nM	3750 nM	O=C(CCCCCNC(=O)NC(=O)c1ccc2c(c1)ncn2CCCc1ccccc1)NO	–
22 nM	2420 nM	O=C(CCCCCNC(=O)NC(=O)c1ccc(NCCN2CCCC2)c([N+](=O)[O-])c1)NO	IC50 (HCT-116 [16]): 1330 nM; IC50 (A2780): 990 nM; IC50 (PC-3): 920 nM; solubility [3]: > 205 µM; half-life [5]: > 30 min; Activity (Histone deacetylase 1 [17]): Active
26 nM	1600 nM	O=C(CCCCCNC(=O)NC(=O)c1ccc(Cl)cc1)NO	–
24 nM	2350 nM	CC(C)(C)c1ccc(C(=O)NC(=O)NCCCCCC(=O)NO)cc1	–
43 nM	11500 nM	CN1CCN(c2ccc(C(=O)NC(=O)NCCCCCC(=O)NO)cc2[N+](=O)[O-])CC1	–
22 nM	2910 nM	CCCCc1nc2cc(C(=O)NC(=O)NCCCCCC(=O)NO)ccc2n1CCN1CCCC1	IC50 (HCT-116 [16]): 3520 nM; IC50 (A2780): 1350 nM; IC50 (PC-3): 1250 nM; solubility [3]: > 211 µM; half-life [5]: > 30 min; Activity (Histone deacetylase 1 [17]): Active
6 nM	2150 nM	O=C(CCCCCNC(=O)NC(=O)c1ccc2ccccc2c1)NO	–
26 nM	10000 nM	O=C(CCCCCNC(=O)NC(=O)c1ccc(-c2cncnc2)cc1)NO	solubility [3]: 17 µM (≈ 6.31 µg/mL); half-life [5]: > 30 min; Activity (Histone deacetylase 1 [17]): Active
20 nM	3700 nM	CN(C)CC(C)(C)Cn1cnc2cc(C(=O)NC(=O)NCCCCCC(=O)NO)ccc21	–
20 nM	3450 nM	O=C(CCCCCNC(=O)NC(=O)c1ccc(N2CCCC2)c([N+](=O)[O-])c1)NO	–
21 nM	5100 nM	CCN(CC)CCn1cnc2cc(C(=O)NC(=O)NCCCCCC(=O)NO)ccc21	–
44 nM	13200 nM	O=C(CCCCCNC(=O)NC(=O)c1ccc(NC(=O)Cc2ccccc2)cc1)NO	solubility [3]: 28 µM (≈ 11.9 µg/mL); Activity (Histone deacetylase 1 [17]): Active
20 nM	1700 nM	CCN(CC)CCNc1ccc(C(=O)NC(=O)NCCCCCC(=O)NO)cc1[N+](=O)[O-]	–
34 nM	5380 nM	O=C(CCCCCNC(=O)NC(=O)c1ccc2c(c1)nc(CCc1ccccc1)n2CCN1CCCC1)NO	solubility [3]: > 250 µM; half-life [5]: 21 min; Activity (Histone deacetylase 1 [17]): Active
45 nM	2310 nM	O=C(CCCCCNC(=O)NC(=O)c1ccc([N+](=O)[O-])cc1)NO	Activity (Histone deacetylase 1 [17]): Active
8 nM	870 nM	O=C(CCCCCNC(=O)NC(=O)c1ccc(I)cc1)NO	–
